Experimental data from patent US9150510B2, “Amino acid derivative” (NIPPON ZOKI PHARMACEUTICAL CO., LTD., priority 2008, dated 2015).

Tests used:
Type in all cases: in vivo
ddY-type mice = experiment: Analgesic efficacy test (1): acetic acid writhing test (nociceptive pain model animal); details: Mus musculus, 25 min, writhing number, male ddY mice, acetic acid i.p. 25 min after administration, mean ± standard error, read-out: Percent Suppression (%); for inhibition in vivo at 100 mg/kg: oral single dose 100 mg/kg; for inhibition in vivo at 10 mg/kg: oral single dose 10 mg/kg
Excerpt: A compound of the present invention was orally administered to mice, to carry out an analgesic efficacy test according to acetic acid writhing test (nociceptive pain model animal). As an experimental animal, 4-week old male ddY-type mice were previously bred, and thereafter 8 mice per one group were used in the experiment. A solution or suspension prepared by dissolving or suspending a compound of the present invention in a 0.5% (w/v) aqueous CMC-Na solution was orally administered as a test substance in a single dose. While, to a control group, a 0.5% (w/v) aqueous CMC-Na solution was administered in the same manner. After 25 minutes from administration, the mice were intraperitoneally administered with a 0.7% (v/v) acetic acid/physiological saline at the dose of 10 mL/kg. From 5 minutes thereafter, writhing number in a 10-minute period was counted, and a suppressive rate for each individual (mean±standard error) was calculated by the following formula: […]
In the test for significance difference, Baltlett's test was carried out in the comparison between multiple groups of the group administered with test substance with the control group. In the case of homoscedasticity, Dunnett's multiple comparison test of parametrics, and in the case of heteroscedasticity, Dunnett's multiple comparison test of non-parametrics were used. In addition, in the test of dose dependency, Jockheere-Terpstra's test was used. In all cases, significance difference was considered to be found at P<0.05.

Chung model rat = experiment: Analgesic efficacy test (2): Chung model rat, neuropathic pain model (allodynia, von Frey filament); details: Table 13, Wistar male rats, L5 spinal nerve ligation, mean ± standard error
Description: An analgesic efficacy test was conducted using a Chung model rat, a neuropathic pain model. Using Wistar male rats after passing 9-week old as an experimental animal, a model rat was prepared in accordance with the method of Kim and Chung (Pain, 50, 355-363, 1992). Specifically, left L5 spinal nerves of rats were exposed under anesthetization with pentobarbital (35 mg/kg, intraperitoneal administration), and firmly ligated with 5-0 silk yarn at L5 dorsal root ganglion peripheral side. The animals were placed in a transparent acrylic cage of which bottom was wire netted The measurement of allodynia was carried out using von Frey filament (manufactured by North Coast Medical Inc.) and a 50% reaction threshold was calculated according to an up-down method, in accordance with methods of Chaplan et al. (J. Neurosci. Method, 53, 55-63, 1994) and Lee et al. (J. Neurophysiol., 81, 2226-2233, 1999). The 50% reaction thresholds were measured twice before injury of the spinal nerve, and those animals of which thresholds were outside the standard were removed from the operation of spinal nerve injury. On or after 14 days from the spinal nerve injury, a 50% reaction threshold was measured, and those showing thresholds of 1 g or more and less than 4 g were used as experimental animal. The group was constituted by 7 rats per group so that an average of a 50% reaction threshold for each group would be nearly even.
A solution or suspension prepared by dissolving or suspending a compound of the present invention in a 0.5% (w/v) aqueous CMC-Na solution was orally administered as a test substance in a single dose while, a 0.5% (w/v) aqueous CMC-Na solution was administered in the same manner to the control group for nerve injury. After 30 minutes from the administration, the measurement of allodynia was carried out, and a 50% reaction threshold (mean±standard error) was calculated. In the test for significance difference, Baltlett's test was carried out in the comparison between multiple groups of the group administered with test substance with the control group for nerve injury. In the case of homoscedasticity, Dunnett's multiple comparison test of parametrics, and in the case of heteroscedasticity, Dunnett's multiple comparison test of non-parametrics were used. In all cases, significance difference was considered to be found at P<0.05.

[1] = Test of blood kinetics in the rats; details: rat, plasma, 2 mg/kg, fasted Wistar male rats, oral single dose of mixed solution of five compounds, each compound 2 mg/5 mL/kg, n=5, LC-MS; for AUC(0-inf): read-out: AUC0-∞ (area under the curve for concentration in blood, time 0 to infinite hours); for Cmax: read-out: Cmax (maximum concentration in plasma)
Description: Ten milligrams of a compound of the present invention was properly converted to a sodium salt with the same amount of sodium hydroxide, where necessary, and each was dissolved in 5 mL of water. Five compounds each among these aqueous solutions of the compounds of the present inventions were mixed, to prepare a mixed solution containing 0.4 mg/mL each of each compound. Six-week old Wistar SPF male rats that were fasted were orally administered with the mixed solution in a single dose using a gavage tube (each compound 2 mg/5 mL/kg, n=5). At time points of 0.25, 0.5, 1, 2, 4, and 8 hours after the administration, about 150 μL of blood was collected using a heparin-added capillary tube from veins of rat tails. The capillary tubes were centrifuged to collect the plasma. The plasma sample was deprotenized and the supernatant was diluted to prepare each of measurement sample solutions. The concentration of the compound of the present invention in each of measurement sample solutions was quantified using LC-MS, and Cmax (maximum concentration in plasma) and AUC (area under the curve for concentration in blood, time 0 to infinite (∞) hours) of the compounds of the present invention were calculated.

| SMILES | inhibition in vivo at 100 mg/kg (ddY-type mice) [%] | 50% Reaction Threshold (g), Group Administered with Test Substance, 30 Min. After Administration (Chung model rat; oral single dose 10 mg/kg) [g] | 50% Reaction Threshold (g), Group Administered with Test Substance, 30 Min. After Administration (Chung model rat; oral single dose 1 mg/kg) [g] | AUC(0-inf) [1] [ng·h/mL] | Cmax [1] [ng/mL] | inhibition in vivo at 10 mg/kg (ddY-type mice) [%] |
| --- | --- | --- | --- | --- | --- | --- |
| NC(=O)[C@H](Cc1c[nH]c2ccccc12)NC(=O)C=Cc1ccccc1F [Compound 23, N^α-[3-(2-Fluorophenyl)acryloyl]-L-tryptophanamide] | 48.2 ± 11.5 | 9.37 ± 1.56 |  |  |  |  |
| C=CC(=O)N[C@@H](Cc1ccc(OC)cc1)C(=O)O [Compound 38, N-Acryloyl-O^4-methyl-L-tyrosine] | 52 ± 8.2 |  | 5.44 ± 0.75 | 8500 | 2800 |  |
| N#CC(=Cc1ccccc1F)C(=O)N[C@@H](Cc1c[nH]c2ccccc12)C(=O)O [Compound 22, N^α-[2-Cyano-3-(2-fluorophenyl)acryloyl]-L-tryptophan] |  | 11.34 ± 1.52 |  | 11400 | 4000 | 39.9 ± 8.6 |
| O=C(C=Cc1ccc(F)cc1F)N[C@@H](Cc1c[nH]c2ccccc12)C(=O)O [Compound 14, N^α-[3-(2,4-Difluorophenyl)acryloyl]-L-tryptophan] |  | 9.38 ± 1.68 |  | 33900 | 4800 | 43.2 ± 10.9 |
| O=C(C=Cc1ccccc1C(F)(F)F)N[C@@H](Cc1c[nH]c2ccccc12)C(=O)O [Compound 10, N^α-[3-(2-Trifluoromethylphenyl)acryloyl]-L-tryptophan] |  | 6.73 ± 1.26 |  |  |  | 41.6 ± 9.6 |
| N=C(N)NCCC[C@H](NC(=O)C=Cc1ccccc1F)C(=O)O [Compound 64, N^α-[3-(2-Fluorophenyl)acryloyl]-L-arginine] |  |  | 6.21 ± 1.04 |  |  | 50.6 ± 7.5 |
| O=C(C=Cc1ccc(F)cc1)N[C@@H](Cc1c[nH]c2ccccc12)C(=O)O [Compound 5, N^α-[3-(4-Fluorophenyl)acryloyl]-L-tryptophan] |  | 6.87 ± 1.28 |  | 14600 | 2300 | 51.3 ± 10.9 |
| O=C(C=Cc1ccccc1O)N[C@@H](Cc1c[nH]c2ccccc12)C(=O)O [Compound 2, N^α-[3-(2-Hydroxyphenyl)acryloyl]-L-tryptophan] |  | 11.64 ± 1.81 |  |  |  | 41.8 ± 4.1 |
| CSCC[C@H](NC(=O)C=Cc1ccccc1F)C(=O)O [Compound 67, N-[3-(2-Fluorophenyl)acryloyl]-L-methionine] |  |  | 4.94 ± 0.61 |  |  | 43.5 ± 6.9 |
| Cn1cc(C[C@H](NC(=O)C=Cc2ccccc2)C(=O)O)c2ccccc21 [Compound 29, 1-Methyl-N^α-(3-phenylacryloyl)-L-tryptophan] |  | 6.45 ± 1.39 |  | 238000 | 50600 | 56.8 ± 6.8 |
| COc1ccccc1C=CC(=O)N[C@@H](Cc1c[nH]c2ccccc12)C(=O)O [Compound 11, N^α-[3-(2-Methoxyphenyl)acryloyl]-L-tryptophan] | 60.9 ± 5.9 | 10.55 ± 1.50 |  | 10600 | 1700 |  |
| O=C(C=Cc1cc(C(F)(F)F)cc(C(F)(F)F)c1)N[C@@H](Cc1c[nH]c2ccccc12)C(=O)O [Compound 16, N^α-{3-[3,5-Bis(trifluoromethyl)phenyl]acryloyl}-L-tryptophan] | 69 ± 4.9 | 8.38 ± 1.07 |  |  |  |  |
| O=C(N[C@@H](Cc1c[nH]c2ccccc12)C(=O)O)c1cc2ccccc2oc1=O [Compound 21, N^α-(Coumarin-3-carbonyl)-L-tryptophan] |  |  | 3.93 ± 0.16 |  |  | 38.3 ± 6.5 |
| N#Cc1ccc(C=CC(=O)N[C@@H](Cc2c[nH]c3ccccc23)C(=O)O)cc1 [Compound 19, N^α-[3-(4-Cyanophenyl)acryloyl]-L-tryptophan] | 52.2 ± 6.1 |  | 5.16 ± 0.41 |  |  |  |
| O=C(C=Cc1ccc(Oc2ccccc2)cc1)N[C@@H](Cc1c[nH]c2ccccc12)C(=O)O [Compound 18, N^α-[3-(4-Phenoxyphenyl)acryloyl]-L-tryptophan] |  | 11.73 ± 1.60 |  |  |  | 56.5 ± 4.2 |
| COc1ccc(C[C@H](NC(=O)C=Cc2ccccc2O)C(=O)O)cc1 [Compound 39, N-[3-(2-Hydroxyphenyl)acryloyl]-O^4-methyl-L-tyrosine] |  | 11.44 ± 1.70 |  |  |  |  |
| O=C(C=Cc1cc(F)ccc1F)N[C@@H](Cc1c[nH]c2ccccc12)C(=O)O [Compound 15, N^α-[3-(2,5-Difluorophenyl)acryloyl]-L-tryptophan] | 61.3 ± 9.9 | 9.12 ± 1.55 |  | 19400 | 2800 |  |
| C=CC(=O)N[C@@H](Cc1c[nH]c2ccccc12)C(=O)O [Compound 1, N^α-Acryloyl-L-tryptophan] |  | 11.18 ± 1.74 |  | 24200 | 7100 | 25.7 ± 6.3 |
| O=C(N[C@@H](Cc1c[nH]c2ccccc12)C(=O)O)c1cc2ccccc2o1 [Compound 20, N^α-(Benzofuran-2-carbonyl)-L-tryptophan] | 41.6 ± 6 |  | 6.13 ± 0.75 | 10200 | 3000 |  |
| O=C(C=Cc1ccccc1)N[C@@H](Cc1c[nH]c2ccccc12)C(=O)O [Compound 8, N^α-(3-Phenylacryloyl)-L-tryptophan] |  | 8.39 ± 1.30 |  | 21900 | 5000 | 67.7 ± 10.3 |
| N#Cc1ccccc1C=CC(=O)N[C@@H](Cc1c[nH]c2ccccc12)C(=O)O [Compound 9, N^α-[3-(2-Cyanophenyl)acryloyl]-L-tryptophan] |  |  | 6.28 ± 0.42 |  |  | 41 ± 12.9 |
| N#Cc1cccc(C=CC(=O)N[C@@H](Cc2c[nH]c3ccccc23)C(=O)O)c1 [Compound 17, N^α-[3-(3-Cyanophenyl)acryloyl]-L-tryptophan] |  | 12.99 ± 1.53 |  |  |  | 54.7 ± 6.8 |
